We go through 3 compounds from the NIST ThermoML archive (doi:10.1016/j.fluid.2013.08.024).

The conditions of series [1]: Crystal; DTA.
A short description of series [2]: Molar enthalpy of transition or fusion. Particulars: Crystal; DSC.

Structures are written as SMILES. ± gives the expanded uncertainty stated by the source.

Turning to `CCCCCCCCCCCC(=O)OCC` [ethyl dodecanoate], the Normal melting temperature in series [1] was 0.1 ± 0.7 °C. Moreover, the “Molar enthalpy of transition or fusion” value in series [2] stood at 38.9 ± 1.1 kJ/mol.

With `CCCCCCCCCCCCCCCC(=O)OCC` [ethyl hexadecanoate], the Normal melting temperature in series [1] was found to be 25.08 ± 0.7 °C. The “Molar enthalpy of transition or fusion” value in series [2] is 55.8 ± 1.5 kJ/mol.

Take `CCCCCCCCCCCCCCCCCC(=O)OCC` [ethyl octadecanoate]: the Normal melting temperature in series [1] stood at 34.2 ± 0.7 °C. The “Molar enthalpy of transition or fusion” value in series [2] came to 59.8 ± 1.6 kJ/mol.
